Test results reported in patent publication US20050054620A1, “Paricalcitol as a chemotherapeutic agent” (priority 2003, published 2005).
“Also recorded” adds a separate entry of the source.

Legend:
24-hydroxylase [1] = molecular target: T1, 24-hydroxylase (Homo sapiens, UniProt Q07973); test: 24-hydroxylase activity by level of 24.25(OH)2D3 in HL-60 cells; type: cell-based; design: endogenous in cells; host or cells: HL-60; conditions: paricalcitol 0.01 μM, arsenic trioxide 0.8 μM, 3 days
T1 sequence (Q07973 36-514): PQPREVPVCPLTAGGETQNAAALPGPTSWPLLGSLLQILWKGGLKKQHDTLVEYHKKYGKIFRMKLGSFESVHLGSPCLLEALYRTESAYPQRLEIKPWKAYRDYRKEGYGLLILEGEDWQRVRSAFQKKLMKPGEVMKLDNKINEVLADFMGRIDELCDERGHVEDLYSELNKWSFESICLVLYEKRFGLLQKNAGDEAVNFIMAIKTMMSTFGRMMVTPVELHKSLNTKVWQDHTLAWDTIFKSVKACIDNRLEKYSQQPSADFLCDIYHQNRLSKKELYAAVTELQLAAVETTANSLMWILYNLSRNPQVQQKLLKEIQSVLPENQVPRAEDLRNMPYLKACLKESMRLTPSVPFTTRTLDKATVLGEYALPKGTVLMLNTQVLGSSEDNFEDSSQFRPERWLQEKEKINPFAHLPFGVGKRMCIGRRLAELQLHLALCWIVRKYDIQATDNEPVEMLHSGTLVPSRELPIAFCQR
Method: (§1) HL-60 (A) and NB-4 (B) myeloid leukemia cell lines were treated with paricalcitol (0.01 μM for HL-60, 0.1 μM for NB-4) and/or arsenic trioxide (0.8 μM for HL-60, 0.6 μM for NB-4) for 3 days. Control cells were treated with vehicle alone. The levels of 24.25(OH)2D3 were measured by HPLC analysis.
(§2) The possibility that the arsenic trioxide inactivates the mitchondrial enzyme, 24-hydroxylase leading to an activation of the response of the cells to vitamin D was tested. The activity of 24-hydroxylase was examined by measuring its metabolite, 24.25(OH)2D3 by TLC analysis in leukemia cells. HL-60 and NB-4 myeloid leukemia cell lines were treated with paricalcitol (0.01 μM for HL-60, 0.1 μM for NB-4) and/or arsenic trioxide (0.8 μM for HL-60, 0.6 μM for NB-4) for 3 days. Control cells were treated with vehicle alone. Then the levels of 24.25(OH)2D3 were measured by TLC analysis. Paricalcitol alone increased the levels of 24.25(OH)2D3 in HL-60 and NB-4, while arsenic trioxide alone decreased its level compared to control cells (FIG. 11). […] The decrease of the levels of 24-hydroxylase by arsenic trioxide may explain the enhanced activity of paricalcitol by arsenic trioxide in leukemia cells.

NCI-H929 cells = test: Cell cycle analysis by flow cytometry; type: cell-based, human; conditions: for G0/G1 arrest / accumulation / sub-G1 population: 0.01 μM each, 3 days
Method: For cell cycle analysis, cells were exposed to 10^−7M 1,25(OH)2D3, 10^−7M paricalcitol or vehicle control for either 3 or 4 days. Total cells, both in suspension and adherent, were collected, washed, suspended in cold PBS. Then cells were fixed in 75% chilled methanol and stained with propidium iodine. Cell cycle status was analyzed on a Becton Dickinson Flow Cytometer.
HCI-H929 cells were cultured with either paricalcitol (10^−7M) or 1,25(OH)2D3 (10^−7M) for 72 hrs, harvested and stained with propidium iodine (PI). Control cells were treated with vehicle alone.

NB-4 cells [2] = test: Cell cycle analysis by flow cytometry (sub-G1); type: cell-based, human; conditions: paricalcitol 0.1 μM and/or arsenic trioxide 0.6 μM, 4 days, control 4%
Method: Cell cycle analysis was performed as follows: after treatment of 5×10^4 of cells with a selected compound, cells were collected, washed and suspended in cold PBS. Cells were fixed in chilled 75% methanol and stained with propidium iodine. Cell cycle status was analyzed on a Becton Dickinson Flow Cytometer used standart protocols.

NB-4 cells [3] = test: CD14 expression by flow cytometry; type: cell-based, human; conditions: paricalcitol 0.1 μM, arsenic trioxide 0.6 μM, 3 days
HL-60 cells [4] = test: NBT reduction (monocytic differentiation); type: cell-based, human; conditions: paricalcitol 0.01 μM, arsenic trioxide 0.8 μM, 3 days
[5] = system: HL-60 myeloid leukemia cells; test: MTT assay; type: cell-based, human; conditions: 4 days exposure
NB-4 cells [6] = test: Western blot of cell lysates; type: cell-based, human
Method: (§3) Western blot analysis was used to determine the levels of proteins involved in cell cycle and differentiation. For western blot analysis, cells were washed twice in PBS, suspended in lysis buffer [50 mM Tris (pH 8.0), 150 mM NaCl, 0.1% SDS, 0.5% sodium deoxycholate, 1% NP40, […] phenylmethylsulfonyl fluoride, […] aprotinin, […] pepstatin, and […] leupetin] and placed on ice for 30 min. After centrifugation at 15,000×g for 15 min at 4° C., the suspension was collected. Protein concentrations were quantitated using the Bio-Rad assay (Bio-Rad Labolatories, Hercules, Calif.). Whole lysates ([…]) were resolved by 4-15% SDS polyacrylamide gel, transferred to an immobilon polyvinylidene difuride membrane (Amersham Corp., Arlington Heights, Ill.), and probed sequentially with a number of antibodies (p21WAF1, p27KIP1, PTEN, and GAPDH, Santa Cruz Biotechnology Inc., Santa Cruz, Calif.). The blots were developed using the Supersignal West Pico Chemiluminescent Substrate Kit (Pierce, Rockford, Ill.).
(§4) Western blot analysis was performed as follows: cells were washed twice in PBS, suspended in lysis buffer (50 mM Tris at pH 8.0, 150 mM NaCl, 0.1% SDS, 0.5% sodium deoxycholate, 1% Nonidet P-40, phenylmethylsulfonyl fluoride at 100 μg/mL, aprotinin at 2 μg/mL, pepstatin at 1 μg/mL, and leupetin at 10 μg/mL), and placed on ice for 30 minutes. After centrifugation at 15,000×g for 15 minutes at 4° C., the suspension was collected. Protein concentrations were quantitated by using the Bio-Rad protein Assay Dye Reagent Concentrate (Bio-Rad Laboratories, Hercules, Calif.) according to the manufacture's recommendation. Whole cell lysates (40 μg) were resolved by SDS-polyacrylamide gel electrophoresis in a 4%-15% gel, transferred to a polyvinylidene difuride membrane (Immobilon, Amersham Corp., Arlington Heights, Ill.), and probed sequentially with antibodies against the following proteins: VDR, RXR, CEBPβ, Rb, Bcl-2, Bcl-XL, Bax, p-ERK, RARA, GAPDH (Santa Cruz Biotechnology Inc., Santa Cruz, CA). The blots were developed using the Supersignal West Pico Chemiluminescent Substrate Kit (Pierce, Rockford, Ill.).

HL-60 cells [7] = test: Western blot of cell lysates; type: cell-based, human; conditions: for phosphorylation of Rb / expression of Bax / expression of C/EBPβ: 3 days; for expression of Bax / expression of C/EBPβ / expression of phosphorylated-ERK: paricalcitol 0.01 μM, arsenic trioxide 0.8 μM; for expression of phosphorylated-ERK: peak after 1 day
Method: as §3, §4

24-hydroxylase [8] = molecular target: T1, 24-hydroxylase; test: 24-hydroxylase activity by level of 24.25(OH)2D3 in NB-4 cells; type: cell-based; design: endogenous in cells; conditions: paricalcitol 0.1 μM, arsenic trioxide 0.6 μM, 3 days
Method: as §1, §2

| Molecule | levels of 24.25(OH)2D3 (24-hydroxylase [1]) | G0/G1 arrest / accumulation (NCI-H929 cells) | sub-G1 population (NCI-H929 cells) | increase of accumulation in G1/G0 phase (NCI-H929 cells; 10^−7M, 72 hrs) [%] | increase in apoptotic sub-G1 population (NCI-H929 cells; 10^−7M, 72 hrs, diluant control 4% sub-G1) [%] | cells in sub-G1 population (NB-4 cells [2]) [%] | CD14 expression (NB-4 cells [3]) | monocytic differentiation by NBT reduction (HL-60 cells [4]) | antiproliferative effect by MTT assay [5] | induction of PTEN (NB-4 cells [6]; 10^−7M, 72 hr) [fold] | expression of VDR and RXR (HL-60 cells [7]) | induction of PTEN (HL-60 cells [7]; 10^−7M, 72 hr) [fold] | induction of p21WAF1 (HL-60 cells [7]; 10^−7M, 72 hr) | induction of p27KIP1 (HL-60 cells [7]; 10^−7M, 72 hr) | phosphorylation of Rb (HL-60 cells [7]) | expression of Bax (HL-60 cells [7]) | expression of C/EBPβ (HL-60 cells [7]) | expression of phosphorylated-ERK (HL-60 cells [7]) | levels of 24.25(OH)2D3 (24-hydroxylase [8]) | protein level of PML-RAR (NB-4 cells [6]; arsenic trioxide 0.6 μM, paricalcitol 0.1 μM, 3 days) |
| --- | --- | --- | --- | --- | --- | --- | --- | --- | --- | --- | --- | --- | --- | --- | --- | --- | --- | --- | --- | --- |
| C[C@H](/C=C/[C@H](C)C(C)(C)O)[C@H]1CC[C@H]2/C(=C/C=C3C[C@@H](O)C[C@H](O)C3)CCC[C@]12C [paricalcitol, 19-nor-1,25, (OH)2D3] | increased | induced G0/G1 arrest | increased | 7 | 21 | 5 | did not induced CD14 expression | increased | suppressed the cell growth in a dose-dependent manner; also recorded: sensitive | 25 | not substantially changed | 7 | approximately 7 fold | about 6 fold | increased | not changed | increased | increased | increased |  |
| arsenic trioxide | decreased | induced G0/G1 arrest | increased |  |  | 33 | did not induced CD14 expression | little effect on differentiation | suppressed the cell growth in a dose-dependent manner |  | not substantially changed |  |  |  | increased | not changed | also increased its expression level | also increased | decreased | decreased the protein level of PML-RAR |
